This is an account of results in PubChem BioAssay AID248 (DTP/NCI, 2004).

The assay relates to L1210 leukemia ip in BDF1 mice, survival T/C. Kind of assay: NCI In Vivo Anticancer Drug Screen. Data for tumor model L1210 Leukemia (intraperitoneal) in B6D2F1 (BDF1) mice. The note with it: endpoint: mean survival time, higher = longer survival. The gist of the method:
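Each compound was tested against a transplantable tumor grown in mice. The endpoint was survival, with treated animals benchmarked against vehicle controls as a simple ratio.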

“And” between values parts separate entries of the source, which are not always exact repeats. Equal entries are not always repeated. Toxic doses and inconclusive results are not listed.

Consider `N#CCc1[nH]nc(N)c1C#N`, for which the T/C was 95 % of control (dose: 100.0 mg/kg/injection, schedule: Q01DX009 (ip), vehicle: Klucel (hydroxypropylcellulose) (HPC)); 89 % of control (dose: 100.0 mg/kg/injection, schedule: Q04DX003 (ip), vehicle: Klucel (hydroxypropylcellulose) (HPC)); 102 % of control (dose: 200.0 mg/kg/injection, schedule: Q01DX009 (ip), vehicle: Klucel (hydroxypropylcellulose) (HPC)); 93 % of control (dose: 200.0 mg/kg/injection, schedule: Q04DX003 (ip), vehicle: Klucel (hydroxypropylcellulose) (HPC)); 96 % of control (dose: 400.0 mg/kg/injection, schedule: Q01DX009 (ip), vehicle: Klucel (hydroxypropylcellulose) (HPC)); 91 % of control (dose: 400.0 mg/kg/injection, schedule: Q04DX003 (ip), vehicle: Klucel (hydroxypropylcellulose) (HPC)).

For the compound `C=CCNC(=O)c1ccc[n+](CC(=O)NCCCCCCCCCC)c1`, the T/C is, setting by setting: (dose: 12.5 mg/kg/injection, schedule: Q04DX003 (ip), vehicle: saline with Tween-80) 95 % of control; (dose: 25.0 mg/kg/injection, schedule: Q04DX003 (ip), vehicle: saline with Tween-80) 101 % of control; (dose: 50.0 mg/kg/injection, schedule: Q04DX003 (ip), vehicle: saline with Tween-80) 94 % of control.

Consider `O=C(O)CS(=O)(=O)Cc1ccc(Cl)cc1`, for which the T/C was 95 % of control (dose: 100.0 mg/kg/injection, schedule: Q04DX002 (ip), vehicle: saline with Tween-80); 113 % of control (dose: 200.0 mg/kg/injection, schedule: Q04DX002 (ip), vehicle: saline with Tween-80); 95 % of control (dose: 400.0 mg/kg/injection, schedule: Q04DX002 (ip), vehicle: saline with Tween-80).

As for `Cc1nc2c(o1)CCCC2`, the T/C (dose: 25.0 mg/kg/injection, schedule: Q01DX009 (ip), vehicle: carboxymethylcellulose (CMC)) was 94 % of control and 107 % of control; the T/C (dose: 50.0 mg/kg/injection, schedule: Q01DX009 (ip), vehicle: carboxymethylcellulose (CMC)) is 97 % of control and 103 % of control; the T/C (dose: 100.0 mg/kg/injection, schedule: Q01DX009 (ip), vehicle: carboxymethylcellulose (CMC)) is 94 % of control and 105 % of control; the T/C (dose: 100.0 mg/kg/injection, schedule: Q04DX002 (ip), vehicle: carboxymethylcellulose (CMC)) is 103 % of control and 113 % of control; the T/C (dose: 200.0 mg/kg/injection, schedule: Q04DX002 (ip), vehicle: carboxymethylcellulose (CMC)) was 98 % of control and 100 % of control; the T/C (dose: 400.0 mg/kg/injection, schedule: Q04DX002 (ip), vehicle: carboxymethylcellulose (CMC)) is 88 % of control.

`Nc1ccc2scnc2c1`: the T/C is 98 % of control (dose: 100.0 mg/kg/injection, schedule: Q01DX009 (ip), vehicle: saline with Tween-80); 98 % of control (dose: 200.0 mg/kg/injection, schedule: Q01DX009 (ip), vehicle: saline with Tween-80); 92 % of control (dose: 400.0 mg/kg/injection, schedule: Q01DX009 (ip), vehicle: saline with Tween-80).

As for `CNC1=C(N2CC2)C(=O)C(NC)=C(N2CC2)C1=O`, the T/C (dose: 0.01 mg/kg/injection, schedule: Q01DX009 (ip), vehicle: Klucel (hydroxypropylcellulose) (HPC)) was 97 % of control and 102 % of control; the T/C (dose: 0.02 mg/kg/injection, schedule: Q01DX009 (ip), vehicle: Klucel (hydroxypropylcellulose) (HPC)) was 100 % of control and 101 % of control; the T/C (dose: 0.04 mg/kg/injection, schedule: Q01DX009 (ip), vehicle: Klucel (hydroxypropylcellulose) (HPC)) was 109 % of control and 119 % of control; the T/C (dose: 0.05 mg/kg/injection, schedule: Q01DX009 (ip), vehicle: saline) was 106 % of control; the T/C (dose: 0.09 mg/kg/injection, schedule: Q04DX003 (ip), vehicle: Klucel (hydroxypropylcellulose) (HPC)) is 110 % of control; the T/C (dose: 0.1 mg/kg/injection, schedule: Q01DX009 (ip), vehicle: saline) is 118 % of control. Also, the T/C is 103 % of control (dose: 0.1 mg/kg/injection, schedule: Q04DX003 (ip), vehicle: saline); 161 % of control (dose: 0.19 mg/kg/injection, schedule: Q01DX009 (ip), vehicle: Klucel (hydroxypropylcellulose) (HPC)); 173 % of control (dose: 0.2 mg/kg/injection, schedule: Q01DX009 (ip), vehicle: saline); 112 % of control (dose: 0.2 mg/kg/injection, schedule: Q04DX003 (ip), vehicle: saline); 108 % of control (dose: 0.37 mg/kg/injection, schedule: Q01DX001 (ip), vehicle: saline); 112 % of control and 88 % of control (dose: 0.39 mg/kg/injection, schedule: Q01DX009 (ip), vehicle: Klucel (hydroxypropylcellulose) (HPC)). The T/C is, setting by setting: (dose: 0.39 mg/kg/injection, schedule: Q04DX003 (ip), vehicle: Klucel (hydroxypropylcellulose) (HPC)) 156 % of control; (dose: 0.78 mg/kg/injection, schedule: Q04DX003 (ip), vehicle: Klucel (hydroxypropylcellulose) (HPC)) 112 % of control and 115 % of control; (dose: 0.8 mg/kg/injection, schedule: Q04DX003 (ip), vehicle: saline) 157 % of control.

Regarding `FCc1nc2nc(Cl)c(Cl)nc2[nH]1`, the T/C runs as follows: (dose: 12.5 mg/kg/injection, schedule: Q01DX009 (ip), vehicle: saline) 100 % of control; (dose: 25.0 mg/kg/injection, schedule: Q01DX009 (ip), vehicle: saline) 96 % of control; (dose: 50.0 mg/kg/injection, schedule: Q01DX009 (ip), vehicle: saline) 88 % of control; (dose: 100.0 mg/kg/injection, schedule: Q04DX003 (ip), vehicle: saline) 97 % of control; (dose: 200.0 mg/kg/injection, schedule: Q04DX003 (ip), vehicle: saline) 97 % of control.

As to `Cc1cnc(C)c(OCCN2CC2)n1`, the T/C (dose: 100.0 mg/kg/injection, schedule: Q01DX001 (ip), vehicle: saline) was 93 % of control.
